Key:
[1] = biological target: T1, baculovirus-expressed ALK (Homo sapiens, UniProt Q9UM73); assay: ALK Kinase Assay (ELISA-type, time-resolved fluorescence); format: biochemical; details: ALK kinase inhibition, 1 μM ATP (Km level); read-out: ALK Activity
T1 construct: host or cells: baculovirus expression system
In short: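 Plates coated with phospholipase C-γ substrate (10 μg/mL in TBS); reaction started with 30 ng/ml ALK and run 15 min at 37° C. Phosphorylated substrate detected with Eu-N1-labeled PT66 antibody. IC50 from sigmoidal variable-slope fit of percent inhibition vs log concentration.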

[2] = biological target: T2, c-Met (cytoplasmic domain) (Homo sapiens, UniProt P08581); assay: c-Met Kinase Assay (same methods as for ALK, with modifications); format: biochemical; details: c-Met kinase inhibition, 1 μM ATP (Km level); read-out: cMet Activity
T2 construct: 10 ng/mL c-Met (cytoplasmic domain, Invitrogen Corporation #PV3143); purchased Invitrogen Corporation PV3143
In short: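 Plates were coated with phospholipase C-γ substrate (10 μg/mL) in TBS, and the reaction was started with 10 ng/mL c-Met cytoplasmic domain and run 15 min at 37 °C. Phosphoproduct was detected with Eu-N1-labelled PT66 antibody. IC50 came from a variable-slope sigmoidal fit of percent inhibition vs log concentration.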

T1 sequence (Q9UM73 19-1620): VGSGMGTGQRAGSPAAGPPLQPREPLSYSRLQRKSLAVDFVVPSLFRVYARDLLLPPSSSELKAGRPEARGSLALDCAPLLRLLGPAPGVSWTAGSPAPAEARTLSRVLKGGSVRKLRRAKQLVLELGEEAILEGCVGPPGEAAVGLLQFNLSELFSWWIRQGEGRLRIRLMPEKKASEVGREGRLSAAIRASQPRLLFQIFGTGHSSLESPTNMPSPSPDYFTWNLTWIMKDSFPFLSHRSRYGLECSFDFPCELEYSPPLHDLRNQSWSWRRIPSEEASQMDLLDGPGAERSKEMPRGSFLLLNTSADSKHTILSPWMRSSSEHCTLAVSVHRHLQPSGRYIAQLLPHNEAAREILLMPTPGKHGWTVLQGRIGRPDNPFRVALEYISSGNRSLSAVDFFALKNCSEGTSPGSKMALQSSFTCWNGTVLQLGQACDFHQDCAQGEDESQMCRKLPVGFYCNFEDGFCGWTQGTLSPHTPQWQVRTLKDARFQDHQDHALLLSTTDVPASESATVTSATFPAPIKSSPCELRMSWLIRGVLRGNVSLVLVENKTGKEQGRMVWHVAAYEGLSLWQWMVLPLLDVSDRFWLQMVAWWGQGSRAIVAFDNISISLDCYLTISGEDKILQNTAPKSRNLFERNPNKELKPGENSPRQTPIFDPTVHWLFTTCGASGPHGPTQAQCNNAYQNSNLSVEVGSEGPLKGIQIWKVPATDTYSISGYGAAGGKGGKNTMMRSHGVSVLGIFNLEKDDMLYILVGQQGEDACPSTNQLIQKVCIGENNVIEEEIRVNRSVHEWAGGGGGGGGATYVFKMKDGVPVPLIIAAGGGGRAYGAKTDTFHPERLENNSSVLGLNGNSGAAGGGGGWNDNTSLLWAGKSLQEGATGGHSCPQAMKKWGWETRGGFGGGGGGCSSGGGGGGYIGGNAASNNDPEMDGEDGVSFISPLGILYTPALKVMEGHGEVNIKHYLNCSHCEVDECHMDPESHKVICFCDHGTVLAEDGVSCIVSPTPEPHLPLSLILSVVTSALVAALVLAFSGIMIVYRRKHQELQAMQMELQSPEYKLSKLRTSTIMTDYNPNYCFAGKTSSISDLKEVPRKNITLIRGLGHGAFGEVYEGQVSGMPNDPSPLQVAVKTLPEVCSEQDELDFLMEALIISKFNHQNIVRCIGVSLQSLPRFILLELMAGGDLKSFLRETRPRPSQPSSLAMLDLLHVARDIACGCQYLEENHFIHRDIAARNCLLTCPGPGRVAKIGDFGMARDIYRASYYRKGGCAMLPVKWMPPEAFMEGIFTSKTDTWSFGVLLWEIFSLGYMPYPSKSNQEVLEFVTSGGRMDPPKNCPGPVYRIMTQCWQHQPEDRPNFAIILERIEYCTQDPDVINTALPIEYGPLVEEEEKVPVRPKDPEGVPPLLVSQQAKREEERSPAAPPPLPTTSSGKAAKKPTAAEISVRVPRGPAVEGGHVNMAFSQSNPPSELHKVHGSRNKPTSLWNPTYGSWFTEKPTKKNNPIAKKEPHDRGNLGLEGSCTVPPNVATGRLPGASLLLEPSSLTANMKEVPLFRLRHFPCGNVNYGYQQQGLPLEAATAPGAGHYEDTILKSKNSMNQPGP
T2 sequence (P08581 956-1390 limits assumed): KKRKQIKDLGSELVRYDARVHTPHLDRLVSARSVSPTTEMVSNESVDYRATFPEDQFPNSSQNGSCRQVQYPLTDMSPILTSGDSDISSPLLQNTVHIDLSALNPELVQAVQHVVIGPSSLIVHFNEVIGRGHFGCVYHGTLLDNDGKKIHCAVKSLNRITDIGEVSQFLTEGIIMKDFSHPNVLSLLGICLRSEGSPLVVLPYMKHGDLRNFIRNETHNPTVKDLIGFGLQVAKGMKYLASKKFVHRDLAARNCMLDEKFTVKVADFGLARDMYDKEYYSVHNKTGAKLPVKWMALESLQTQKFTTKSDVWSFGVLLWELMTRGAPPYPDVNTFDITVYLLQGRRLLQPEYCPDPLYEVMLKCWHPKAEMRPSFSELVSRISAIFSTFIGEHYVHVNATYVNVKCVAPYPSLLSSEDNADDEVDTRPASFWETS

Row | Compound | IC50 [1] [nM] | IC50 [2] [nM]
1 | CNS(=O)(=O)c1ccccc1Nc1nc(Nc2ccc3c(c2)CCCC(=O)N3CC(=O)O)ncc1Cl [Example 9, {7-[5-Chloro-4-(2-methylsulfamoyl-phenylamino)-pyrimidin-2-ylamino]-2-oxo-2,3,4,5-tetrahydro-benzo[b]azepin-1-yl}-acetic acid] | < 100 | < 100
2 | CNS(=O)(=O)c1ccccc1Nc1nc(Nc2ccc3c(c2)CCCC(=O)N3CC(=O)N2CCN(C)CC2)ncc1Cl [Example 10, 2-(5-Chloro-2-{1-[2-(4-methyl-piperazin-1-yl)-2-oxo-ethyl]-2-oxo-2,3,4,5-tetrahydro-1H-benzo[b]azepin-7-ylamino}-pyrimidin-4-ylamino)-N-methyl-benzenesulfonamide] | < 100 | < 100
3 | CNC(=O)c1ccccc1Nc1nc(Nc2ccc3c(c2)CCCNC3=O)ncc1Cl [Example 11, 2-[5-Chloro-2-(1-oxo-2,3,4,5-tetrahydro-1H-benzo[c]azepin-7-ylamino)-pyrimidin-4-ylamino]-N-methyl-benzamide] | < 100 | < 100
4 | CNC(=O)c1ccccc1Nc1nc(Nc2ccc3c(c2)COC[C@@H]2CCCN32)ncc1Cl [Example 12, 2-{5-Chloro-2-[(S)-(2,3,3a,4-tetrahydro-1H,6H-5-oxa-10b-aza-benzo[e]azulen-8-yl)amino]-pyrimidin-4-ylamino}-N-methyl-benzamide] | < 100 | < 100
5 | CNS(=O)(=O)c1ccccc1Nc1nc(Nc2ccc3c(c2)COC[C@@H]2CCCN32)ncc1Cl [Example 13, 2-{5-Chloro-2-[(S)-(2,3,3a,4-tetrahydro-1H,6H-5-oxa-10b-aza-benzo[e]azulen-8-yl)amino]-pyrimidin-4-ylamino}-N-methyl-benzenesulfonamide] | < 100 | 1000 to 10000
6 | CNC(=O)c1ccccc1Nc1nc(Nc2ccc3c(c2)COCC2CCCCN32)ncc1Cl (centres unmarked) [Example 14, 2-[5-Chloro-2-(7,7a,8,9,10,11-hexahydro-5H-6-oxa-11a-aza-dibenzo[a,c]cyclohepten-3-ylamino)-pyrimidin-4-ylamino]-N-methyl-benzamide] | < 100 | < 100
7 | CNC(=O)c1ccccc1Nc1nc(Nc2ccc3c(c2)COCCN3C)ncc1Cl [Example 15, 2-[5-Chloro-2-(1-methyl-1,2,3,5-tetrahydro-benzo[e][1,4]oxazepin-7-ylamino)-pyrimidin-4-ylamino]-N-methyl-benzamide] | < 100 | < 100
8 | CNS(=O)(=O)c1ccccc1Nc1nc(Nc2ccc3c(c2)COCCN3C)ncc1Cl [Example 17, 2-[5-Chloro-2-(1-methyl-1,2,3,5-tetrahydro-benzo[e][1,4]oxazepin-7-ylamino)-pyrimidin-4-ylamino]-N-methyl-benzenesulfonamide] | < 100 | < 100
9 | CNC(=O)c1ccccc1Nc1nc(Nc2ccc(OC)c3c2NC(=O)CCC3)ncc1Cl [Example 18, 2-[5-Chloro-2-(6-methoxy-2-oxo-2,3,4,5-tetrahydro-1H-benzo[b]azepin-9-ylamino)-pyrimidin-4-ylamino]-N-methyl-benzamide] | < 100 | 1000 to 10000
10 | CCN1CCc2ccc(Nc3ncc(Cl)c(Nc4ccccc4C(=O)NC)n3)cc2CC1 [Example 31, 2-[5-Chloro-2-(3-ethyl-2,3,4,5-tetrahydro-1H-benzo[d]azepin-7-ylamino)-pyrimidin-4-ylamino]-N-methyl-benzamide] | < 100 | < 100
11 | CCN1CCc2ccc(Nc3ncc(Cl)c(Nc4ccccc4S(=O)(=O)NC)n3)cc2CC1 [Example 32, 2-[5-Chloro-2-(3-ethyl-2,3,4,5-tetrahydro-1H-benzo[d]azepin-7-ylamino)-pyrimidin-4-ylamino]-N-methyl-benzenesulfonamide] | < 100 | < 100
12 | CCN1CCc2ccc(Nc3ncc(Cl)c(Nc4cc(Cl)ccc4C(=O)NC)n3)cc2CC1 [Example 33, 4-Chloro-2-[5-chloro-2-(3-ethyl-2,3,4,5-tetrahydro-1H-benzo[d]azepin-7-ylamino)-pyrimidin-4-ylamino]-N-methyl-benzamide] | < 100 | < 100
13 | CNS(=O)(=O)c1ccccc1Nc1nc(Nc2ccc3c(c2)CCN(CCOC)CC3)ncc1Cl [Example 35, 2-{5-Chloro-2-[3-(2-methoxy-ethyl)-2,3,4,5-tetrahydro-1H-benzo[d]azepin-7-ylamino]-pyrimidin-4-ylamino}-N-methyl-benzenesulfonamide] | < 100 | 100 to 1000
14 | COCCN1CCc2ccc(Nc3ncc(Cl)c(N[C@@H]4CCCC[C@H]4NS(C)(=O)=O)n3)cc2CC1 [Example 36, N-((1R,2R)-2-{5-Chloro-2-[3-(2-methoxy-ethyl)-2,3,4,5-tetrahydro-1H-benzo[d]azepin-7-ylamino]-pyrimidin-4-ylamino}-cyclohexyl)-methanesulfonamide] | < 100 | 1000 to 10000
15 | CNC(=O)c1ccccc1Nc1nc(Nc2ccc3c(c2)CCN(CCF)CC3)ncc1Cl [Example 38, 2-{5-Chloro-2-[3-(2-fluoro-ethyl)-2,3,4,5-tetrahydro-1H-benzo[d]azepin-7-ylamino]-pyrimidin-4-ylamino}-N-methyl-benzamide] | < 100 | < 100
16 | CNC(=O)c1ccccc1Nc1nc(Nc2ccc3c(c2)CCN(CC(C)(C)F)CC3)ncc1Cl [Example 39, 2-{5-Chloro-2-[3-(2-fluoro-2-methyl-propyl)-2,3,4,5-tetrahydro-1H-benzo[d]azepin-7-ylamino]-pyrimidin-4-ylamino}-N-methyl-benzamide] | < 100 | 100 to 1000
17 | CC(C)(F)CN1CCc2ccc(Nc3ncc(Cl)c(N[C@@H]4CCCC[C@H]4NS(C)(=O)=O)n3)cc2CC1 [Example 40, N-((1R,2R)-2-{5-Chloro-2-[3-(2-fluoro-2-methyl-propyl)-2,3,4,5-tetrahydro-1H-benzo[d]azepin-7-ylamino]-pyrimidin-4-ylamino}-cyclohexyl)-methanesulfonamide] | < 100 | 1000 to 10000
18 | CNC(=O)c1ccccc1Nc1nc(Nc2ccc3c(c2)CCN(CC(F)(F)F)CC3)ncc1Cl [Example 41, 2-{5-Chloro-2-[3-(2,2,2-trifluoro-ethyl)-2,3,4,5-tetrahydro-1H-benzo[d]azepin-7-ylamino]-pyrimidin-4-ylamino}-N-methyl-benzamide] | < 100 | < 100
19 | CNC(=O)c1ccccc1Nc1nc(Nc2ccc3c(c2)CCN(S(C)(=O)=O)CC3)ncc1Cl [Example 42, 2-[5-Chloro-2-(3-methanesulfonyl-2,3,4,5-tetrahydro-1H-benzo[d]azepin-7-ylamino)-pyrimidin-4-ylamino]-N-methyl-benzamide] | < 100 | < 100
20 | CNS(=O)(=O)c1ccccc1Nc1nc(Nc2ccc3c(c2)CCN(S(C)(=O)=O)CC3)ncc1Cl [Example 43, 2-[5-Chloro-2-(3-methanesulfonyl-2,3,4,5-tetrahydro-1H-benzo[d]azepin-7-ylamino)-pyrimidin-4-ylamino]-N-methyl-benzenesulfonamide] | < 100 | < 100
21 | CNC(=O)c1ccccc1Nc1nc(Nc2ccc3c(c2)CCN(C(=O)C(F)(F)F)CC3)ncc1Cl [Example 44, 2-{5-Chloro-2-[3-(2,2,2-trifluoro-acetyl)-2,3,4,5-tetrahydro-1H-benzo[d]azepin-7-ylamino]-pyrimidin-4-ylamino}-N-methyl-benzamide] | < 100 | < 100
22 | CNC(=O)c1ccccc1Nc1nc(Nc2ccc3c(c2)CCNCC3)ncc1Cl [Example 45, 2-[5-Chloro-2-(2,3,4,5-tetrahydro-1H-benzo[d]azepin-7-ylamino)-pyrimidin-4-ylamino]-N-methyl-benzamide] | < 100 | < 100
23 | CNC(=O)c1ccccc1Nc1nc(Nc2ccc3c(c2)CCN(C)CC3)ncc1Cl [Example 46, 2-[5-Chloro-2-(3-methyl-2,3,4,5-tetrahydro-1H-benzo[d]azepin-7-ylamino)-pyrimidin-4-ylamino]-N-methyl-benzamide] | < 100 | < 100
24 | CNC(=O)c1ccccc1Nc1nc(Nc2ccc3c(c2)CCN(C(C)C)CC3)ncc1Cl [Example 47, 2-[5-Chloro-2-(3-isopropyl-2,3,4,5-tetrahydro-1H-benzo[d]azepin-7-ylamino)-pyrimidin-4-ylamino]-N-methyl-benzamide] | < 100 | < 100
25 | CCN1CCc2cc(Nc3ncc(Cl)c(Nc4ccccc4C(=O)NC)n3)c(OC)cc2CC1 [Example 48, 2-[5-Chloro-2-(3-ethyl-8-methoxy-2,3,4,5-tetrahydro-1H-benzo[d]azepin-7-ylamino)-pyrimidin-4-ylamino]-N-methyl-benzamide] | < 100 | 1000 to 10000
26 | CCN1CCc2ccc(OC)c(Nc3ncc(Cl)c(Nc4ccccc4S(=O)(=O)NC)n3)c2CC1 [Example 49, 2-[5-Chloro-2-(3-ethyl-7-methoxy-2,3,4,5-tetrahydro-1H-benzo[d]azepin-6-ylamino)-pyrimidin-4-ylamino]-N-methyl-benzenesulfonamide] | < 100 | > 10000
27 | CCN1CCc2cc(Nc3ncc(Cl)c(Nc4ccccc4C(=O)NC)n3)c(OC)c(N)c2CC1 [Example 50, 2-[2-(9-Amino-3-ethyl-8-methoxy-2,3,4,5-tetrahydro-1H-benzo[d]azepin-7-ylamino)-5-chloro-pyrimidin-4-ylamino]-N-methyl-benzamide] | < 100 | > 10000
28 | CNC(=O)c1ccccc1Nc1nc(Nc2ccc3c(c2)CCOCC3)ncc1Cl [Example 51, 2-[5-Chloro-2-(5,6,8,9-tetrahydro-7-oxa-benzocyclohepten-2-ylamino)-pyrimidin-4-ylamino]-N-methyl-benzamide] | < 100 | < 100
